Reference: ChEMBL document CHEMBL1127879, “A conformationally restrained series of AT1-selective angiotensin II antagonists” (Bioorg Med Chem Lett, 1994)

Molecular target: T1, Angiotensin II receptor (AT-1) type-1 (Rattus norvegicus, UniProt P29089+P25095)
T1 sequence (P29089 whole entry): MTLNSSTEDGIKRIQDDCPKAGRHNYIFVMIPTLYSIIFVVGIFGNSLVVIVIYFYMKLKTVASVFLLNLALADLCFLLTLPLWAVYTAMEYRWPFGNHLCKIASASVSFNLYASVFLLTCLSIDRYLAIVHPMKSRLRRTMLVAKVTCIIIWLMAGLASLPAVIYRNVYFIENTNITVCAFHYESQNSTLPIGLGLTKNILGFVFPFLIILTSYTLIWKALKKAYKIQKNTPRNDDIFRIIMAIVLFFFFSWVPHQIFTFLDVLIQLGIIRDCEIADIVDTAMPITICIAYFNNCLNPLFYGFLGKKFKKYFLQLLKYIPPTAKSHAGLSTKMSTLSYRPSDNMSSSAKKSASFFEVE
T1 sequence (P25095 whole entry): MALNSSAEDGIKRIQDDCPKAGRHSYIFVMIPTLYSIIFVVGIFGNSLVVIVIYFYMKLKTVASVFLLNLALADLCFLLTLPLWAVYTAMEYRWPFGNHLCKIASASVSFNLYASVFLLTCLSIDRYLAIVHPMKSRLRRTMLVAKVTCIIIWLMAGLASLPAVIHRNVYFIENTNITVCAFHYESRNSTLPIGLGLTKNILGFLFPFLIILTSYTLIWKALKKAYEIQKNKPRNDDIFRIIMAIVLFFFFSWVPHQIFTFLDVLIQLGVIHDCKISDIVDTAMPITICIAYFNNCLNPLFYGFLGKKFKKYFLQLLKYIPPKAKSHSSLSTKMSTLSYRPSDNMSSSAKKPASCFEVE
Assay: Binding affinity against Angiotensin II receptor, type 1 using [125I]Sar-Ile8-AII in rat liver membranes
Type: cell membranes, Membrane

SMILES | IC50 [nM]
CCCCc1nc2c(C)cc(C)nc2n1C1CCc2cc(-c3ccccc3-c3nn[nH]n3)ccc21 (stereo not drawn) | 30
Cc1cc(C)c2nc(C3CC3)n(C3CCc4cc(-c5ccccc5-c5nn[nH]n5)ccc43)c2n1 (stereo not drawn) | 0.2
CCCc1nc2c(C)cc(C)nc2n1C1CCc2cc(-c3ccccc3-c3nn[nH]n3)ccc21 (stereo not drawn) | 14
CCc1nc2c(C)ccnc2n1C1CCc2cc(-c3ccccc3-c3nn[nH]n3)ccc21 (stereo not drawn) | 120
Cc1cc(C)c2nc(C(C)C)n(C3CCc4cc(-c5ccccc5-c5nn[nH]n5)ccc43)c2n1 (stereo not drawn) | 70

Now from value to molecule:

IC50 [nM] | SMILES
11 | CCc1nc2c(C)cc(C)nc2n1C1CCc2cc(-c3ccccc3-c3nn[nH]n3)ccc21 (stereo not drawn)
120 | CCc1nc2c(C)cc(C)nc2n1C1CCCc2cc(-c3ccccc3-c3nn[nH]n3)ccc21 (stereo not drawn)
220 | CCc1nc2c(C)cc(C)nc2n1C1CCCCc2cc(-c3ccccc3-c3nn[nH]n3)ccc21 (stereo not drawn)
